# Assay results reported in US8853264B2, “Use of lignan compounds for treating or preventing inflammatory disease” (Newtree Industry Co., Ltd., priority 2005, dated 2014).
# Columns and labels:
# NO = NO production in RAW264.7 cells activated with LPS (Griess); assay type: cell-based
# Procedure: RAW264.7 cells were diluted at a concentration of 1×10^6 cell/ml and then inoculated into RPMI 1640 medium. After 5 hours, the inventive macelignan was added to the medium at each of a concentration of 1-20 μM, followed by incubation for 2 hours. Then, the medium was treated with LPS (10 μg/ml) and incubated for 24 hours. A control group was treated only with LPS. The production of NO was quantified by measuring NO2^−, a reaction product of NO, using the remains of cell culture (Han et al., Life Sci., 75(6): 675-684, 2004). 100 μl of the remains of cell culture and the same volume of Greiss reagent (0.5% sulfanilyamide, 0.05% N-(1-naphthyl)ethylene diamine dihydrochloride/2.5% H3PO4) were mixed with each other on a 96-well tissue culture plate and allowed to react in a dark place for 10 minutes. Then, the absorbance of the sample was measured at 550 nm using the ELISA microplate reader. […] All tests were repeated at three times, and then quantified by student's t-test.
# TNF-α mRNA = TNF-α mRNA level in skin lesion (RT-PCR); assay type: in vivo, NC/Nga mice
# Procedure: (§1) In order to induce atopic dermatitis, 100 mg of mite antigen cream was applied on the ear, occipital region and back of NC/Nga mouse (9 to 11 weeks old), except for the negative control group, 3 times a week, 2 hours after the application of 4% SDS solution. Three weeks later, it was observed whether atopic dermatitis was induced by checking skin rash, erythema, cornification, or the like. Atopic dermatitis was induced in all groups except for the negative control group. […] Transepidermal water loss (TEWL), skin hydration and erythema index were measured one day before the end of the test. […]
# After the end of the experiment, skin tissue was isolated from the occipital region to the back of the mouse, immersed in liquid nitrogen, pulverized using a mortar, dissolved in 500 μL of TRIzol® (InvitrogenLife Technologies, USA), and then homogenized using a homogenizer in order to measure mRNA level of cytokines in skin lesion. […] After the centrifuge, the supernatant was discarded and the remaining pellets were washed 2 times with 100% ethanol, dried, and then subjected to RNA quantification by spectrophotometry. […]
# [1] = Clinical visual evaluation of skin lesion, atopic dermatitis model; assay type: in vivo, NC/Nga mice
# Procedure: as §1, with “group. For drug treatment and evaluation of therapeutic effect, mice were grouped into 12 groups, 6 oral administration groups and 6 topical application groups (each consisting of negative control group, positive control group, macelignan low conc. group, macelignan high conc. group, nutmeg extract low conc. group, and nutmeg extract high conc. group), with n=5 per cage.” for “group.”
# Prior to the end of the experiment, the lesions of the mice were photographed. The change of the skin lesion was evaluated visually.
# [2] = oral administration 50 and 150 mg/kg
# [3] = topical application 20 and 60 mg/kg
structure (smiles),measurement,setting,value
"COc1cc(C[C@H](C)[C@H](C)Cc2ccc3c(c2)OCO3)ccc1O (single isomer, unassigned) [macelignan]",inhibition of NO production at low concentrations,"NO; 1 μM and 5 μM, P<0.01",excellent effects on the inhibition of NO production
same,production of NO at 20 μM,NO; 20 μM macelignan,inhibited to an extent almost similar to that of the group treated with nothing
same,production of NO,"NO; 1-20 μM, LPS 10 μg/ml, 24 hours",concentration-dependently inhibited
same,TNF-α mRNA level in skin lesion,TNF-α mRNA; [2],statistically significant effect of decreasing TNF-α mRNA level
same,TNF-α mRNA level in skin lesion,TNF-α mRNA; [3],effect of decreasing TNF-α mRNA level
same,clinical visual evaluation of skin lesion,[1]; [2],"remarkable decrease in erythema/hemorrhage, dryness/scarring, edema, excoriation/erosion and lichenification and improvement in atopic dermatitis"
same,clinical visual evaluation of skin lesion,[1]; [3],"remarkable decrease in erythema/hemorrhage, dryness/scarring, edema, excoriation/erosion and lichenification and improvement in atopic dermatitis"
